# Laboratory results as given in patent US10681909B2, “Herbicidal triazoles” (FMC Corporation, priority 2014, dated 2020).
# How the values were obtained:
# wheat (winter wheat) = test: Test C postemergence; assay type: in vivo, Triticum aestivum
# Source text: (§1) Seeds of plant species selected from blackgrass (Alopecurus myosuroides), ryegrass, Italian (Italian ryegrass, Lolium multiflorum), wheat (winter wheat, Triticum aestivum), galium (catchweed bedstraw, Galium aparine), corn (Zea mays), crabgrass, large (large crabgrass, Digitaria sanguinalis), foxtail, giant, (giant foxtail, Setaria faberii), johnsongrass (Sorghum halepense), lambsquarters (Chenopodium album), morningglory (Ipomoea coccinea), nutsedge, yellow (yellow nutsedge, Cyperus esculentus), pigweed (Amaranthus retroflexus), ragweed (common ragweed, Ambrosia elatior), soybean (Glycine max), barnyardgrass (Echinochloa crus-galli), oilseed rape (Brassica napus), waterhemp (common waterhemp, Amaranthus rudis), and velvetleaf (Abutilon theophrasti) were planted into a blend of loam soil and sand and treated preemergence with test chemicals formulated in a non-phytotoxic solvent mixture which included a surfactant. At the same time, plants selected from these crop and weed species and also chickweed (common chickweed, Stellaria media), oat, wild (wild oat, Avena fatua), and kochia (Kochia scoparia), were planted in pots containing Sunshine Redi-Earth® planting medium comprising spaghnum peat moss, vermiculite, starter nutrients and dolomitic limestone and treated with postemergence applications of test chemicals formulated in the same manner. Plants ranged in height from 2 to 18 cm (1- to 4-leaf stage) for postemergence treatments. […] A dash (-) response means no test result.
# johnsongrass = test: Test C postemergence; assay type: in vivo, Sorghum halepense
# Source text: as §1
# corn [1] = test: Test A postemergence; assay type: in vivo, Zea mays; settings: 0 to 100 scale (0 no effect, 100 complete control), approx. 10 d
# In short: (§2)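 Test chemicals in a non-phytotoxic solvent with surfactant were applied as a directed soil spray preemergence to seeds sown in loam/sand. Postemergence sprays went to plants 2–10 cm tall at the one- to two-leaf stage. A dash means no result.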
# galium = test: Test C postemergence; assay type: in vivo, Galium aparine
# Source text: as §1
# oat, wild = test: Test C postemergence; assay type: in vivo, Avena fatua
# Source text: as §1
# corn [2] = test: Test C postemergence; assay type: in vivo, Zea mays
# Source text: as §1
# chickweed = test: Test C postemergence; assay type: in vivo, Stellaria media
# Source text: as §1
# oilseed rape = test: Test C postemergence; assay type: in vivo, Brassica napus
# Source text: as §1
# foxtail, giant [3] = test: Test C postemergence; assay type: in vivo, Setaria faberii
# Source text: as §1
# ducksalad = test: Test B flooded paddy test; assay type: in vivo, Heteranthera limosa; settings: 250 g ai/ha, applied to paddy water at 2-leaf stage, visual rating after 13 to 15 d, scale 0 (no effect) to 100 (complete control)
# In short: (§3)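 Pots were flooded to 3 cm above the soil at treatment, and compounds were applied directly into the paddy water. That depth was held throughout. After 13 to 15 d in a greenhouse, plants were rated visually against untreated controls.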
# barnyardgrass [4] = test: Test B flooded paddy test; assay type: in vivo, Echinochloa crus-galli; settings: 250 g ai/ha, applied to paddy water at 2-leaf stage, visual rating after 13 to 15 d, scale 0 (no effect) to 100 (complete control)
# In short: as §3
# foxtail, giant [5] = test: Test A postemergence; assay type: in vivo, Setaria faberii; settings: 0 to 100 scale (0 no effect, 100 complete control), approx. 10 d
# In short: as §2
# ryegrass, Italian = test: Test C postemergence; assay type: in vivo, Lolium multiflorum
# Source text: as §1
# rice = test: Test B flooded paddy test; assay type: in vivo, Oryza sativa; settings: 250 g ai/ha, applied to paddy water at 2-leaf stage, visual rating after 13 to 15 d, scale 0 (no effect) to 100 (complete control)
# In short: as §3
# barnyardgrass [6] = test: Test A postemergence; assay type: in vivo, Echinochloa crus-galli; settings: 0 to 100 scale (0 no effect, 100 complete control), approx. 10 d
# In short: as §2
# pigweed [7] = test: Test A postemergence; assay type: in vivo, Amaranthus retroflexus; settings: 0 to 100 scale (0 no effect, 100 complete control), approx. 10 d
# In short: as §2
# lambsquarters = test: Test C postemergence; assay type: in vivo, Chenopodium album
# Source text: as §1
# sedge, umbrella = test: Test B flooded paddy test; assay type: in vivo, Cyperus difformis; settings: 250 g ai/ha, applied to paddy water at 2-leaf stage, visual rating after 13 to 15 d, scale 0 (no effect) to 100 (complete control)
# In short: as §3
# ragweed = test: Test C postemergence; assay type: in vivo, Ambrosia elatior
# Source text: as §1
# pigweed [8] = test: Test C postemergence; assay type: in vivo, Amaranthus retroflexus
# Source text: as §1
# nutsedge, yellow = test: Test C postemergence; assay type: in vivo, Cyperus esculentus
# Source text: as §1
structure (smiles),measurement,setting,value
FC(F)(F)COc1nc(-c2ccc(Cl)cc2)nn1Cc1ccnc(C(F)(F)F)c1 [Compound 31],Plant response rating (scale of 0 to 100 where 0 is no effect and 100 is complete control),wheat (winter wheat); 31 g ai/ha,5
same,Plant response rating (scale of 0 to 100 where 0 is no effect and 100 is complete control),wheat (winter wheat); 62 g ai/ha,5
same,Plant response rating (scale of 0 to 100 where 0 is no effect and 100 is complete control),wheat (winter wheat); 125 g ai/ha,10
same,Plant response rating (scale of 0 to 100 where 0 is no effect and 100 is complete control),wheat (winter wheat); 250 g ai/ha,20
same,Plant response rating (scale of 0 to 100 where 0 is no effect and 100 is complete control),johnsongrass; 31 g ai/ha,35
same,Plant response rating (scale of 0 to 100 where 0 is no effect and 100 is complete control),johnsongrass; 62 g ai/ha,25
same,Plant response rating (scale of 0 to 100 where 0 is no effect and 100 is complete control),johnsongrass; 125 g ai/ha,40
same,Plant response rating (scale of 0 to 100 where 0 is no effect and 100 is complete control),johnsongrass; 250 g ai/ha,70
same,"Plant response rating, Corn",corn [1]; 125 g ai/ha,20
same,"Plant response rating, Corn",corn [1]; 500 g ai/ha,30
same,Plant response rating (scale of 0 to 100 where 0 is no effect and 100 is complete control),galium; 31 g ai/ha,80
same,Plant response rating (scale of 0 to 100 where 0 is no effect and 100 is complete control),galium; 62 g ai/ha,80
same,Plant response rating (scale of 0 to 100 where 0 is no effect and 100 is complete control),galium; 125 g ai/ha,80
same,Plant response rating (scale of 0 to 100 where 0 is no effect and 100 is complete control),galium; 250 g ai/ha,80
same,Plant response rating (scale of 0 to 100 where 0 is no effect and 100 is complete control),"oat, wild; 31 g ai/ha",30
same,Plant response rating (scale of 0 to 100 where 0 is no effect and 100 is complete control),"oat, wild; 62 g ai/ha",35
same,Plant response rating (scale of 0 to 100 where 0 is no effect and 100 is complete control),"oat, wild; 125 g ai/ha",80
same,Plant response rating (scale of 0 to 100 where 0 is no effect and 100 is complete control),"oat, wild; 250 g ai/ha",80
same,Plant response rating (scale of 0 to 100 where 0 is no effect and 100 is complete control),corn [2]; 31 g ai/ha,40
same,Plant response rating (scale of 0 to 100 where 0 is no effect and 100 is complete control),corn [2]; 62 g ai/ha,20
same,Plant response rating (scale of 0 to 100 where 0 is no effect and 100 is complete control),corn [2]; 125 g ai/ha,20
same,Plant response rating (scale of 0 to 100 where 0 is no effect and 100 is complete control),corn [2]; 250 g ai/ha,30
same,Plant response rating (scale of 0 to 100 where 0 is no effect and 100 is complete control),chickweed; 31 g ai/ha,90
same,Plant response rating (scale of 0 to 100 where 0 is no effect and 100 is complete control),chickweed; 62 g ai/ha,95
same,Plant response rating (scale of 0 to 100 where 0 is no effect and 100 is complete control),chickweed; 125 g ai/ha,95
same,Plant response rating (scale of 0 to 100 where 0 is no effect and 100 is complete control),chickweed; 250 g ai/ha,95
same,Plant response rating (scale of 0 to 100 where 0 is no effect and 100 is complete control),"oilseed rape; Oilsee Rape, 250 g ai/ha",90
same,Plant response rating (scale of 0 to 100 where 0 is no effect and 100 is complete control),"oilseed rape; Oilseed Rape, 31 g ai/ha",85
same,Plant response rating (scale of 0 to 100 where 0 is no effect and 100 is complete control),"oilseed rape; Oilseed Rape, 62 g ai/ha",90
same,Plant response rating (scale of 0 to 100 where 0 is no effect and 100 is complete control),"oilseed rape; Oilseed Rape, 125 g ai/ha",85
same,Plant response rating (scale of 0 to 100 where 0 is no effect and 100 is complete control),"foxtail, giant [3]; 31 g ai/ha",15
same,Plant response rating (scale of 0 to 100 where 0 is no effect and 100 is complete control),"foxtail, giant [3]; 62 g ai/ha",35
same,Plant response rating (scale of 0 to 100 where 0 is no effect and 100 is complete control),"foxtail, giant [3]; 125 g ai/ha",40
same,Plant response rating (scale of 0 to 100 where 0 is no effect and 100 is complete control),"foxtail, giant [3]; 250 g ai/ha",40
same,"Plant response rating, Ducksalad, Flood",ducksalad,70
same,"Plant response rating, Barnyardgrass, Flood",barnyardgrass [4],40
same,"Plant response rating, Foxtail, Giant","foxtail, giant [5]; 125 g ai/ha",80
same,"Plant response rating, Foxtail, Giant","foxtail, giant [5]; 500 g ai/ha",90
same,Plant response rating (scale of 0 to 100 where 0 is no effect and 100 is complete control),"ryegrass, Italian; 31 g ai/ha",20
same,Plant response rating (scale of 0 to 100 where 0 is no effect and 100 is complete control),"ryegrass, Italian; 62 g ai/ha",30
same,Plant response rating (scale of 0 to 100 where 0 is no effect and 100 is complete control),"ryegrass, Italian; 125 g ai/ha",40
same,Plant response rating (scale of 0 to 100 where 0 is no effect and 100 is complete control),"ryegrass, Italian; 250 g ai/ha",65
same,"Plant response rating, Rice, Flood",rice,35
same,"Plant response rating, Barnyardgrass",barnyardgrass [6]; 125 g ai/ha,50
same,"Plant response rating, Barnyardgrass",barnyardgrass [6]; 500 g ai/ha,90
same,"Plant response rating, Pigweed",pigweed [7]; 125 g ai/ha,100
same,"Plant response rating, Pigweed",pigweed [7]; 500 g ai/ha,100
same,Plant response rating (scale of 0 to 100 where 0 is no effect and 100 is complete control),lambsquarters; 31 g ai/ha,98
same,Plant response rating (scale of 0 to 100 where 0 is no effect and 100 is complete control),lambsquarters; 62 g ai/ha,100
same,Plant response rating (scale of 0 to 100 where 0 is no effect and 100 is complete control),lambsquarters; 125 g ai/ha,100
same,Plant response rating (scale of 0 to 100 where 0 is no effect and 100 is complete control),lambsquarters; 250 g ai/ha,100
same,"Plant response rating, Sedge, Umbrella, Flood","sedge, umbrella",100
same,Plant response rating (scale of 0 to 100 where 0 is no effect and 100 is complete control),ragweed; 31 g ai/ha,70
same,Plant response rating (scale of 0 to 100 where 0 is no effect and 100 is complete control),ragweed; 62 g ai/ha,75
same,Plant response rating (scale of 0 to 100 where 0 is no effect and 100 is complete control),ragweed; 125 g ai/ha,85
same,Plant response rating (scale of 0 to 100 where 0 is no effect and 100 is complete control),ragweed; 250 g ai/ha,100
same,Plant response rating (scale of 0 to 100 where 0 is no effect and 100 is complete control),pigweed [8]; 31 g ai/ha,95
same,Plant response rating (scale of 0 to 100 where 0 is no effect and 100 is complete control),pigweed [8]; 62 g ai/ha,98
same,Plant response rating (scale of 0 to 100 where 0 is no effect and 100 is complete control),pigweed [8]; 125 g ai/ha,100
same,Plant response rating (scale of 0 to 100 where 0 is no effect and 100 is complete control),pigweed [8]; 250 g ai/ha,98
same,Plant response rating (scale of 0 to 100 where 0 is no effect and 100 is complete control),"nutsedge, yellow; 31 g ai/ha",20
same,Plant response rating (scale of 0 to 100 where 0 is no effect and 100 is complete control),"nutsedge, yellow; 62 g ai/ha",30
same,Plant response rating (scale of 0 to 100 where 0 is no effect and 100 is complete control),"nutsedge, yellow; 125 g ai/ha",30
same,Plant response rating (scale of 0 to 100 where 0 is no effect and 100 is complete control),"nutsedge, yellow; 250 g ai/ha",35
